According to patent US10723711B2, “1,1,1-trifluoro-3-hydroxypropan-2-yl carbamate derivatives and 1,1,1-trifluoro-4-hydroxybutan-2-yl carbamate derivatives as MAGL inhibitors” (PFIZER INC., priority 2015, dated 2020):
Like-named read-outs stand apart in the source and are kept apart here.

How the values were obtained:
Type in all cases: biochemical
[1] = target: T1, human recombinant Monoacylglycerol Lipase (Homo sapiens, UniProt Q99685); assay: MAGL inhibition enzymatic assay, fluorogenic substrate 7-HCA, IC50 at T=0 min or after 30 minute incubation (T=30 min); details: geometric mean of 2-4 determinations unless otherwise indicated
T1 sequence (Q99685 1-303): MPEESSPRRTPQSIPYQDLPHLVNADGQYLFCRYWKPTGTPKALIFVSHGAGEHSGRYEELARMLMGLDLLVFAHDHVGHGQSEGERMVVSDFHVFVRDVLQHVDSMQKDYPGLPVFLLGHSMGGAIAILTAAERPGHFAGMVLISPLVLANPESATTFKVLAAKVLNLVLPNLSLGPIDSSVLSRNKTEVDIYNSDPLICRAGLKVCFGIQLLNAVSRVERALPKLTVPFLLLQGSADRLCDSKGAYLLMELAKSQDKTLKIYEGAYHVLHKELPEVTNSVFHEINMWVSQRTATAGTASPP
Method: An equal volume of 7-HCA in assay buffer with 10% DMSO was added either immediately (T=0 min) or after a 30 minute incubation (T=30 min) to initiate the reaction. […] After these dilutions, the final concentration of the test compound ranged from 3 μM to 0.03 nM. […] IC50 values were generated based on a four parameter fit model using ABASE software from IDBS.

[2] = target: T1, human recombinant Monoacylglycerol Lipase; assay: MAGL inactivation, enzyme progress curves, kinact/KI; details: from enzyme progress curves, T = 0 min protocol; geometric mean of 2-4 determinations unless otherwise indicated
Method: Assessment of MAGL inhibition utilizes human recombinant Monoacylglycerol Lipase and the fluorogenic substrate 7-hydroxycoumarinyl arachidonate (7-HCA, Biomol ST-502). 400 nL of a test compound at decreasing concentration (ranging from 150 μM down to 1.5 nM) was spotted into a 384-well back plate (PerkinElmer, 6007279) using a Labcyte Echo, followed by addition of 10 μL of MAGL enzyme in assay buffer (50 mM HEPES, pH 7.4, 100 mM NaCl, 5 mM MgCl2, 0.1% Triton X-100 and 25% glycerin). An equal volume of 7-HCA in assay buffer with 10% DMSO was added either immediately (T=0 min) or after a 30 minute incubation (T=30 min) to initiate the reaction. The final concentration of MAGL enzyme was […] and 7-HCA substrate was 5 μM. After these dilutions, the final concentration of the test compound ranged from 3 μM to 0.03 nM. The reaction was allowed to progress for 60 minutes, after which the plate was read at an Ex/Em of 340/465. Percent inhibitions were calculated based on control wells containing no compound (0% inhibition) and a control compound (e.g., a MAGL inhibitor whose activity is known or was previously reported in the literature, such as one with about 100% inhibition). IC50 values were generated based on a four parameter fit model using ABASE software from IDBS. See e.g., Wang, Y. et al., “A Fluorescence-Based Assay for Monoacylglycerol Lipase Compatible with Inhibitor Screening,” Assay and Drug Development Technologies, 2008, Vol. 6 (3) pp 387-393 (reporting an assay for measuring MAGL activity).
To measure MAGL inactivation, the same protocol for the (T=0 min) MAGL inhibition IC50 assay was performed with data collected every minute to acquire enzyme progress curves at decreasing concentrations of compound.

human recombinant FAAH = target: T2, human recombinant FAAH (Homo sapiens, UniProt O00519); assay: FAAH inhibition enzymatic assay, fluorescent substrate Arachidonoyl-AMC, 30 minute incubation; details: T = 30 min (30 minute incubation); geometric mean of 2-4 determinations unless otherwise indicated
T2 construct: purchased Cayman 10010183
T2 sequence (O00519 1-579): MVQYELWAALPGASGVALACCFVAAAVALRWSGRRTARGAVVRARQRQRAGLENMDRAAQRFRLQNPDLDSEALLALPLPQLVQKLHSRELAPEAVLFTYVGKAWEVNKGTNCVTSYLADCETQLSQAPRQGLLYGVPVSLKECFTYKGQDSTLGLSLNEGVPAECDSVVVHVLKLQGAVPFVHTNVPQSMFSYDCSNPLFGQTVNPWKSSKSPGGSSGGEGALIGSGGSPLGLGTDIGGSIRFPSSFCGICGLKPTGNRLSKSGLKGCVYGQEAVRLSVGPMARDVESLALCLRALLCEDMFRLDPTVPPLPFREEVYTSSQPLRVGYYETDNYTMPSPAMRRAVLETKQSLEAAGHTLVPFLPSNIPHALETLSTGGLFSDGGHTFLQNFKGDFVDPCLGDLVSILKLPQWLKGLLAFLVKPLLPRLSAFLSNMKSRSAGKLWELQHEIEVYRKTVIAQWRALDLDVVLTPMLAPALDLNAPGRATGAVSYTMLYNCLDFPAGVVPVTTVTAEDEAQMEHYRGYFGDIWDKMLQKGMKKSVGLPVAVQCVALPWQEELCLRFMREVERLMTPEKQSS
Method: Assessment of FAAH inhibition utilizes human recombinant FAAH and the fluorescent substrate, Arachidonoyl-AMC. 400 nL of a test compound at decreasing concentrations was spotted into a 384-well back plate (PerkinElmer, 6007279) using a Labcyte Echo, followed by addition of 10 μl of FAAH enzyme (Cayman 10010183) in assay buffer (50 mM Tris, pH 9.0, 1 mM EDTA). After a 30 minute incubation at room temperature, 10 μL of Arachidonyl-AMCA was added in assay buffer with 16% DMSO. Final concentration of FAAH enzyme was 0.0125 Units and AAMCA substrate was used at the Km of 5 μM. […] The reaction was allowed to progress for 60 minutes, after which the plate was read on a Molecular Devices FlexStation reader at an Ex/Em of 355/460. Percent inhibitions were calculated based on controls wells containing either no compound (0% inhibition) or a control compound (e.g., an FAAH inhibitor whose activity is known or was previously reported in the literature, such as one with about 100% inhibition). IC50 values were generated based on a four parameter fit model using ABASE software from IDBS.

[3] = T = 0 min (substrate added immediately), read-out: MAGL (T = 0 min) IC50
[4] = T = 30 min (30 minute incubation), read-out: MAGL (T = 30 min) IC50

O=C(O[C@H](CO)C(F)(F)F)N1CCC2(CC1)CC(N1Cc3ccccc3S1(=O)=O)CO2 (mixture of isomers) [Example 101, (2R)-1,1,1-trifluoro-3-hydroxypropan-2-yl 3-(1,1-dioxido-1,2-benzothiazol-2(3H)-yl)-1-oxa-8-azaspiro[4.5]decane-8-carboxylate]
IC50 [1, 3]: 180 nM | IC50 [1, 4]: 21 nM | MAGL kinact/KI [2]: 2454 1/s per M | IC50 (human recombinant FAAH): 6540 nM

Cc1ccc(CC2COC3(CCN(C(=O)O[C@H](CO)C(F)(F)F)CC3)C2)nc1 (mixture of isomers) [Example 102, (2R)-1,1,1-Trifluoro-3-hydroxypropan-2-yl 3-[(5-methylpyridin-2-yl)methyl]-1-oxa-8-azaspiro[4.5]decane-8-carboxylate]
IC50 [1, 3]: 215 nM | IC50 [1, 4]: 26 nM | MAGL kinact/KI [2]: 1336 1/s per M | IC50 (human recombinant FAAH): 18300 nM

CN(C1COC2(CCN(C(=O)O[C@H](CO)C(F)(F)F)CC2)C1)S(=O)(=O)C1CCCC1 (mixture of isomers) [Example 112]
IC50 [1, 3]: 64 nM | IC50 [1, 4]: 7 nM | MAGL kinact/KI [2]: 14232 1/s per M | IC50 (human recombinant FAAH): > 30000 nM

CN(C1COC2(CCN(C(=O)O[C@H](CO)C(F)(F)F)CC2)C1)S(=O)(=O)C1CCC1 (mixture of isomers) [Example 113]
IC50 [1, 3]: 139 nM | IC50 [1, 4]: 10 nM | MAGL kinact/KI [2]: 6254 1/s per M | IC50 (human recombinant FAAH): > 25500 nM

CN(C1COC2(CCN(C(=O)O[C@H](CO)C(F)(F)F)CC2)C1)S(=O)(=O)c1cccnc1 (mixture of isomers) [Example 114]
IC50 [1, 3]: 163 nM | IC50 [1, 4]: 15 nM | MAGL kinact/KI [2]: 6263 1/s per M | IC50 (human recombinant FAAH): > 30000 nM

CN(C1COC2(CCN(C(=O)O[C@H](CO)C(F)(F)F)CC2)C1)S(=O)(=O)c1cncnc1 (mixture of isomers) [Example 115]
IC50 [1, 3]: 341 nM | IC50 [1, 4]: 27 nM | MAGL kinact/KI [2]: 2917 1/s per M | IC50 (human recombinant FAAH): > 30000 nM

O=C(O[C@H](CO)C(F)(F)F)N1CCC2(CC1)CC(c1cccc(OC(F)(F)F)c1)CO2 (mixture of isomers) [Example 118]
IC50 [1, 3]: 2 nM | IC50 [1, 4]: 0.4 nM | MAGL kinact/KI [2]: 172844 1/s per M | IC50 (human recombinant FAAH): > 24800 nM

O=C(O[C@H](CO)C(F)(F)F)N1CCC2(CC1)CC(c1cccc(Cl)c1)CO2 (mixture of isomers) [Example 119]
IC50 [1, 3]: 32 nM | IC50 [1, 4]: 3 nM | MAGL kinact/KI [2]: 23176 1/s per M | IC50 (human recombinant FAAH): 3570 nM

O=C(O[C@H](CO)C(F)(F)F)N1CCC2(CC1)CC(c1ccc(F)nc1)CO2 (mixture of isomers) [Example 120]
IC50 [1, 3]: 166 nM | IC50 [1, 4]: 21 nM | MAGL kinact/KI [2]: 1516 1/s per M | IC50 (human recombinant FAAH): > 30000 nM

COc1ccc(C2COC3(CCN(C(=O)O[C@H](CO)C(F)(F)F)CC3)C2)nc1 (mixture of isomers) [Example 121]
IC50 [1, 3]: 149 nM | IC50 [1, 4]: 20 nM | MAGL kinact/KI [2]: 1207 1/s per M | IC50 (human recombinant FAAH): 14700 nM

O=C(O[C@H](CO)C(F)(F)F)N1CCC2(CC1)CC(N1CCc3ccccc3S1(=O)=O)CO2 (mixture of isomers) [Example 131]
IC50 [1, 3]: 86 nM | IC50 [1, 4]: 11 nM | MAGL kinact/KI [2]: 4241 1/s per M | IC50 (human recombinant FAAH): 17400 nM

N#Cc1cccc(C2COC3(CCN(C(=O)O[C@H](CO)C(F)(F)F)CC3)C2)c1 (mixture of isomers) [Example 147]
IC50 [1, 3]: 60 nM | IC50 [1, 4]: 6 nM | MAGL kinact/KI [2]: 5973 1/s per M | IC50 (human recombinant FAAH): > 26400 nM

O=C(OC(C(F)(F)F)C(F)(F)CO)N1CCC2(CC1)CN(S(=O)(=O)c1ccc(F)cc1)CCO2 (racemic) [Example 19, 1,1,1,3,3-Pentafluoro-4-hydroxybutan-2-yl 4-[(4-fluorophenyl)sulfonyl]-1-oxa-4,9-diazaspiro[5.5]undecane-9-carboxylate]
IC50 [1, 3]: 95 nM | IC50 [1, 4]: 8 nM | MAGL kinact/KI [2]: 2397 1/s per M | IC50 (human recombinant FAAH): > 30000 nM
